Laboratory results taken from paper PMC7340670, “Phase I study of TAS-115, a novel oral multi-kinase inhibitor, in patients with advanced solid tumors” (Investigational New Drugs, 2019).
Entries after “also recorded” stand apart in the source; their conditions may differ. Read-outs that look alike come from different tables or passages of the source.

How the values were obtained:
[1] = Plasma pharmacokinetics in the phase I study; type: in vivo, human; settings: for half-life / AUC(0-t) / Cmax / Tmax: human, plasma; for half-life: read-out: t1/2 Mean (SD) (converted); for AUC(0-t): read-out: AUC0-24 Mean (SD); for Cmax: read-out: Cmax Mean (SD)
Description: Blood samples were collected for plasma PK assessments pre-dosing and at 1, 2, 3, 4, 6, 8, 12, and 24 h after TAS-115 administration on Days 1 and 8 of cycle 1 in part 1, and on Days 1, 8, and 19 of cycle 1 in part 2 (only pre-dosing on Day 8). TAS-115 concentrations were measured by validated liquid chromatography-tandem mass spectrometry. A preliminary assessment of the effect of food on the PK profile was performed. Blood samples after administration under fed and empty stomach conditions were collected from the first six patients in the expansion part. Pharmacokinetic parameters were determined using non-compartmental analyses (Phoenix® WinNonlin® version 6.4; Certara LP, Princeton, NJ, USA).

soluble MET (sMET) = experiment: Pharmacodynamic marker: sMET in plasma; type: in vivo, human
Description: (§1) The secondary objectives were to investigate the PK profile, safety, tolerability, antitumor activity, and pharmacodynamic profile of TAS-115. AEs were graded according to the CTCAE Version 4.03. Response was assessed by radiologic imaging at 6 and 12 weeks from the first dose, and every 12 weeks thereafter. Antitumor effect was evaluated by investigators using Response Evaluation Criteria in Solid Tumors (RECIST) Version 1.1 [17]. If a patient had bone lesions, evaluation was performed using bone scintigraphy and bone scan index (BSI) were calculated by BONENAVI® software (FUJIFILM Toyama Chemical, Co., Ltd., Japan). BSI response was defined as ≥30% reduction in BSI [18]. An exploratory objective was to assess changes in protein levels of soluble MET (sMET), VEGF, and soluble VEGFR2 (sVEGFR2) in plasma, and HGF in serum as pharmacodynamic markers.
For pharmacodynamic analyses, blood samples were collected on Days 1 and 22 (before dosing, each) in part 1, and Days 1 (pre-dosing) and 19 (pre- and post 6 h) in part 2 and the expansion part. Patients provided written informed consent to provide blood samples for exploratory pharmacodynamics assessments.
The planned sample size was up to 90 patients, and it was not based on the formal calculation because of experimental phase I trial. For pharmacodynamics parameters, P values were calculated using the paired t-test for measured values from merged doses. The data cut-off date for the analyses presented in this report was August 19, 2018. This study is registered with Japan Pharmaceutical Information Center Clinical Trial registry, number JapicCTI-132333.

VEGF = experiment: Pharmacodynamic marker: VEGF in plasma; type: in vivo, human
Description: as §1
For pharmacodynamic analyses, blood samples were collected on Days 1 and 22 (before dosing, each) in part 1, and Days 1 (pre-dosing) and 19 (pre- and post 6 h) in part 2 and the expansion part. […]
The planned sample size was up to 90 patients, and it was not based on the formal calculation because of experimental phase I trial. For pharmacodynamics parameters, P values were calculated using the paired t-test for measured values from merged doses. […]

recombinant VEGFR2 = test system: recombinant VEGFR2; set-up: method as in PMID 24140932; settings: read-out: IC50 against recombinant VEGFR2; cited from earlier work
[2] = expansion part, 650 mg, six patients, not statistically significant
[3] = oral, 200 mg/day, Part 1, Day 1 (single administration), 200 mg/day, n=3
[4] = oral, 200 mg/day, Part 1, Day 8 (multiple administration), 200 mg/day, n=3
[5] = oral, 300 mg/day, Part 1, Day 1 (single administration), 300 mg/day, n=3
[6] = oral, 300 mg/day, Part 1, Day 8 (multiple administration), 300 mg/day, n=2
[7] = oral, 450 mg/day, Part 1, Day 1 (single administration), 450 mg/day, n=3
[8] = oral, 450 mg/day, Part 1, Day 8 (multiple administration), 450 mg/day, n=3
[9] = oral, 650 mg/day, Expansion part, Empty Stomach, 650 mg/day, n=6
[10] = oral, 650 mg/day, Expansion part, Fed, 650 mg/day, n=6
[11] = oral, 650 mg/day, Part 1, Day 1 (single administration), 650 mg/day, n=6
[12] = oral, 650 mg/day, Part 1, Day 8 (multiple administration), 650 mg/day, n=5
[13] = oral, 650 mg/day, Part 2, Day 1 (single administration), 650 mg/day, n=6
[14] = oral, 650 mg/day, Part 2, Day 19 (multiple administration), 650 mg/day, n=6
[15] = oral, 800 mg/day, Part 1, Day 1 (single administration), 800 mg/day, n=6
[16] = oral, 800 mg/day, Part 1, Day 8 (multiple administration), 800 mg/day, n=6

Structure (SMILES): CNC(=O)c1cc2c(Oc3ccc(NC(=S)NC(=O)Cc4ccccc4)cc3F)ccnc2cc1OC [TAS-115]
- dose dependence of AUC0–24 / systemic exposure ([1]; after single administration, part 1): increased almost dose-proportionally; also recorded: increased dose-proportionally over the tested range from 200 mg to 650 mg
- geometric mean ratio (90% CI) of AUC0–24, fed to empty stomach condition [1, 2]: 0.812 (0.414–1.593)
- geometric mean ratio (90% CI) of Cmax, fed to empty stomach condition [1, 2]: 0.545 (0.243–1.224)
- half-life ([1]; oral, 200 mg/day, Part 1, Day 1 (single administration), 200 mg/day, n=2): 15.2 h
- AUC(0-t) [1, 3]: 20000 ng·h/mL
- Cmax [1, 3]: 2490 ng/mL
- Tmax ([1]; oral, 200 mg/day, Part 1, Day 1 (single administration), 200 mg/day, n=3, read-out: tmax Median): 1 h
- AUC(0-t) [1, 4]: 22700 ng·h/mL
- Cmax [1, 4]: 2950 ng/mL
- half-life [1, 4]: 26.6 h
- Tmax ([1]; oral, 200 mg/day, Part 1, Day 8 (multiple administration), 200 mg/day, n=3, read-out: tmax Median): 1 h
- AUC(0-t) [1, 5]: 23200 ng·h/mL
- Cmax [1, 5]: 3500 ng/mL
- half-life [1, 5]: 20.4 h
- Tmax ([1]; oral, 300 mg/day, Part 1, Day 1 (single administration), 300 mg/day, n=3, read-out: tmax Median): 1 h
- AUC(0-t) [1, 6]: 32500 ng·h/mL
- Cmax [1, 6]: 3900 ng/mL
- half-life [1, 6]: 15.9 h
- Tmax ([1]; oral, 300 mg/day, Part 1, Day 8 (multiple administration), 300 mg/day, n=2, read-out: tmax Median): 1.5 h
- AUC(0-t) [1, 7]: 28800 ng·h/mL
- Cmax [1, 7]: 4540 ng/mL
- half-life [1, 7]: 12.6 h
- Tmax ([1]; oral, 450 mg/day, Part 1, Day 1 (single administration), 450 mg/day, n=3, read-out: tmax Median): 1 h
- AUC(0-t) [1, 8]: 37000 ng·h/mL
- Cmax [1, 8]: 4310 ng/mL
- half-life [1, 8]: 11.4 h
- Tmax ([1]; oral, 450 mg/day, Part 1, Day 8 (multiple administration), 450 mg/day, n=3, read-out: tmax Median): 1 h
- AUC(0-t) [1, 9]: 39300 ng·h/mL
- Cmax [1, 9]: 4760 ng/mL
- Tmax ([1]; oral, 650 mg/day, Expansion part, Empty Stomach, 650 mg/day, n=6, read-out: tmax Median): 2 h
- AUC(0-t) [1, 10]: 41700 ng·h/mL
- Cmax [1, 10]: 3900 ng/mL
- Tmax ([1]; oral, 650 mg/day, Expansion part, Fed, 650 mg/day, n=6, read-out: tmax Median): 5 h
- AUC(0-t) [1, 11]: 59700 ng·h/mL
- Cmax [1, 11]: 7700 ng/mL
- half-life [1, 11]: 10.3 h
- Tmax ([1]; oral, 650 mg/day, Part 1, Day 1 (single administration), 650 mg/day, n=6, read-out: tmax Median): 1 h
- half-life ([1]; oral, 650 mg/day, Part 1, Day 8 (multiple administration), 650 mg/day, n=4): 8.7 h
- AUC(0-t) [1, 12]: 54500 ng·h/mL
- Cmax [1, 12]: 5040 ng/mL
- Tmax ([1]; oral, 650 mg/day, Part 1, Day 8 (multiple administration), 650 mg/day, n=5, read-out: tmax Median): 2 h
- half-life ([1]; oral, 650 mg/day, Part 2, Day 1 (single administration), 650 mg/day, n=5): 14.5 h
- AUC(0-t) [1, 13]: 49800 ng·h/mL
- Cmax [1, 13]: 7510 ng/mL
- Tmax ([1]; oral, 650 mg/day, Part 2, Day 1 (single administration), 650 mg/day, n=6, read-out: tmax Median): 1 h
- AUC(0-t) [1, 14]: 56700 ng·h/mL
- Cmax [1, 14]: 7370 ng/mL
- half-life [1, 14]: 16.8 h
- Tmax ([1]; oral, 650 mg/day, Part 2, Day 19 (multiple administration), 650 mg/day, n=6, read-out: tmax Median): 1 h
- AUC(0-t) [1, 15]: 37800 ng·h/mL
- Cmax [1, 15]: 4910 ng/mL
- half-life [1, 15]: 13.7 h
- Tmax ([1]; oral, 800 mg/day, Part 1, Day 1 (single administration), 800 mg/day, n=6, read-out: tmax Median): 1 h
- AUC(0-t) [1, 16]: 44600 ng·h/mL
- Cmax [1, 16]: 5220 ng/mL
- half-life [1, 16]: 12.8 h
- Tmax ([1]; oral, 800 mg/day, Part 1, Day 8 (multiple administration), 800 mg/day, n=6, read-out: tmax Median): 1.5 h
- Tmax ([1]; po, oral administration, across dose levels, read-out: median time to maximum concentration (tmax)): 1 to 2 h
- accumulation ([1]; multiple dosing for 8 days, part 1): no accumulation
- change of sMET in plasma (soluble MET (sMET); Day 19, 6 h after administration, part 2 and expansion part, P = .0055): significant increase
- change of sMET in plasma (soluble MET (sMET); Day 19 pre-dose, part 2 and expansion part, P = .0015): significant increase
- change of sMET in plasma (soluble MET (sMET); Day 22 in part 1, P = .0031): significant increase
- change of VEGF (VEGF; 6 h post-dose on Day 19 compared with pre-dose on Day 19, P = .0844): increase
- marked alterations of VEGF from Day 1 (VEGF; in vivo): not observed
- IC50 (recombinant VEGFR2): 30 nM
